Measured values as given in patent US20090202481A1, “Composition for Sustained Release Delivery of Proteins or Peptides” (priority 2008, published 2009).

Tests used:
Type in all cases: physicochemical
[1] = Physical stability (phase separation, top/bottom ratio) of SAIB/NMP formulations standing at room temperature
Procedure: (§1) Octreotide acetate (OCT-Ac) and octreotide conjugate (PAL-PEG-BA-OCT) powders were dissolved in NMP. Then the solutions containing various forms of octreotide were thoroughly mixed with SAIB solution in NMP (90% w/w).
(§2) The formulations as prepared above were allowed to stand at room temperature (˜22° C.). At predefined time points, the appearance of the formulations was recorded and an aliquot of each of both the supernatant and bottom composition was collected and analyzed by HPLC for octreotide content. The physical stability of the formulations was determined by direct observation or using the ratio of the content of the octreotide in the supernatant to that in the bottom composition. If the ratio equals to 1.0, the formulation is uniform and stable.

[2] = Purity of the octreotide in formulations at room temperature over time (HPLC); details: SAIB/NMP formulation
Procedure: as §1, §2

[3] = In vitro release of octreotide from SAIB/NMP formulations into PBS 7.4 at 37° C.; details: PBS 7.4, 37° C., SAIB/NMP formulation
Procedure: Formulations were prepared by mixing octreotide acetate (OCT-Ac) and octreotide conjugate (PAL-PEG-BA-OCT) powders with SAIB solution in NMP (90% w/w).
Due to the physical instability of the formulation containing OCT-Ac, the in vitro release was investigated immediately after the preparation of the formulations. An aliquot of the suspension was used for the in vitro release. About 0.1 mL of each formulation containing octreotide was injected into 3 mL of releasing buffer (PBS 7.4, containing 0.1% sodium azide) in a 4 mL glass vial. The vials were incubated at 37° C. and sampled at various time points. At each time point, 2 mL of release medium was removed and 2 mL of fresh release medium added. The collected samples were analyzed for peptide concentration and integrity by HPLC using an YMC-Pack ODS-120A column. Triplicate samples were used for each formulation.

## C[C@@H](O)[C@@H]1NC(=O)[C@H](CCCCN)NC(=O)[C@@H](Cc2c[nH]c3ccccc23)NC(=O)[C@H](Cc2ccccc2)NC(=O)[C@@H](NC(=O)[C@H](N)Cc2ccccc2)CSSC[C@@H](C(=O)N[C@H](CO)[C@@H](C)O)NC1=O [OCT-Ac, Octreotide acetate]
[1]; on mixing, about 6% octreotide content
  Appearance when combined with SAIB/NMP solution: phase separation occurred immediately
[1]; room temperature, SAIB/NMP formulation
  NMP in the bottom phase: slightly more NMP
[1]; room temperature, after 5 days
  OCT ratio top/bottom: less than 0.03
[1]; room temperature, after two days
  Concentration of the octreotide in the bottom phase relative to the upper phase: about 20 folds
[1]; stood at room temperature for 24 h
  Phase separation of formulation (FIG. 1): apparent phase separation occurred
[2]; after 7 days
  Octreotide degraded in the bottom phase: more than 20%
  Octreotide degraded in the supernatant: More than half
[2]; after two hours
  Octreotide degraded or reacted: about 4%
[3]
  Initial burst release (FIG. 2): very high initial burst release
[3]; after two weeks
  Octreotide released: more than 90%
[3]; within 24 hours
  Octreotide released: More than 60%
